Measured values as given in patent publication US12459974B2, “Bicyclic peptide ligands specific for Nectin-4” (priority 2018, dated 2025).
*1 amine or outer side, *2 acyl side, *3 side chain or, on linkers, in order; H or OH if unused. Where a SMILES comes first, the peptide text is derived from it. Bridges are numbered along the chain shown (N, C = ends). Roman numbers before positions name the chains, in order. [ ]: non-standard residue; d: D form. The star is where a group is joined. ξ: configuration not given here. TATA = O=C(CC[*:1])N1CN(C(=O)CC[*:2])CN(C(=O)CC[*:3])C1; Dolaproine = CO[C@@H]([C@@H]1CCCN1)[C@@H](C)C(=O)O; X1 = CC[C@H](C)C(C(CC(=O)[*:2])OC)N(C)[*:1]; 1Nal = N[C@@H](Cc1cccc2ccccc12)C(=O)O; X3 = O=C(CCCC(=O)[*:2])NCCC(=O)[*:1]; PABC = O=C(OCc1ccc(N[*:1])cc1)[*:2]; Hyp = O=C(O)[C@@H]1C[C@@H](O)CN1; hArg = N=C(N)NCCCC[C@H](N)C(=O)O; Cit = NC(=O)NCCC[C@H](N)C(=O)O; X2 = CC(N*)[C@@H](O)c1ccccc1; ξNMeV = CNC(C(=O)O)C(C)C; ξV = CC(C)C(N)C(=O)O; Sar = CNCC(=O)O

How the values were obtained:
Panc2.13 xenograft = assay: Example 9.7: in vivo efficacy in Panc2.13 xenograft in Balb/c nude mice; conditions: for Tumor volume: iv
Procedure: (§1) The major endpoint was to see if the tumor growth could be delayed or mice could be cured. Tumor volume was measured three times weekly in two dimensions using a caliper, and the volume was expressed in mm^3 using the formula: V=0.5 a×b^2 where a and b are the long and short diameters of the tumor, respectively. The tumor size was then used for calculations of T/C value. The T/C value (in percent) is an indication of antitumor effectiveness; T and C are the mean volumes of the treated and control groups, respectively, on a given day. TGI was calculated for each group using the formula: TGI (%)=[1−(Ti−T0)/(Vi−V0)]×100; Ti is the average tumor volume of a treatment group on a given day, T0 is the average tumor volume of the treatment group on the day of treatment start, Vi is the average tumor volume of the vehicle control group on the same day with Ti, and V0 is the average tumor volume of the vehicle group on the day of treatment start.
A one-way ANOVA was performed to compare tumor volume among groups, and when a significant F-statistics (a ratio of treatment variance to the error variance) was obtained, comparisons between groups were carried out with Games-Howell test. All data were analyzed using GraphPad Prism 5.0. P<0.05 was considered to be statistically significant.
• Species: Mus Musculus • Strain: Balb/c nude • Age: 6-8 weeks • Sex: female • Body weight: 18-22 g • Number of animals: 41 mice plus spare 3.1.2.
The Panc2.13 tumor cells will be maintained in RMPI1640 medium supplemented with 15% heat inactivated fetal bovine serum and 10 units/ml human recombinant insulin at 37° C. in an atmosphere of 5% CO2 in air. The tumor cells will be routinely subcultured twice weekly. The cells growing in an exponential growth phase will be harvested and counted for tumor inoculation.
Each mouse was inoculated subcutaneously at the right flank with Panc2.13 tumor cells (5×10^6 with Matrigel (1:1) in 0.2 ml of PBS for tumor development. 41 animals were randomized when the average tumor volume reached 149 mm^3. The test article administration and the animal numbers in each group were shown in the experimental design table.
Tumor growth inhibition rate for Test articles in the Panc2.13 xenograft model was calculated based on tumor volume measurements at day 14 after the start of treatment.

HT-1376 xenograft = assay: Example 2: in vivo efficacy in HT-1376 xenograft (bladder cancer model) in CB17-SCID mice
Procedure: as §1
A one-way ANOVA was performed to compare tumor volume among groups, and when a significant F-statistics (a ratio of treatment variance to the error variance) was obtained, comparisons between groups were carried out with Games-Howell test. […] P<0.05 was considered to be statistically significant.
• Species: Mus Musculus • Strain: CB17-SCID • Age: 6-8 weeks • Sex: female • Body weight: 18-22 g • Number of animals: 21-41 mice plus spare • Animal supplier: Shanghai LC Laboratory Animal Co., LTD.
The HT-1376 tumor cells were maintained in vitro as a monolayer culture in EMEM medium supplemented with 10% heat inactivated fetal bovine serum at 37° C. in an atmosphere of 5% CO2 in air. The tumor cells were routinely subcultured twice weekly by trypsin-EDTA treatment.
Each mouse was inoculated subcutaneously at the right flank with HT-1376 tumor cells (5×10^6) in 0.2 ml of PBS with matrigel (1:1) for tumor development. Animals were randomized when the average tumor volume reached 153-164 mm^3.
Tumor growth inhibition rate for Test articles in the HT-1376 xenograft model was calculated based on tumor volume measurements at day 21 after the start of treatment.

[1] = 3 mg/kg biw, day 21, groups 8-17
[2] = 3 mg/kg qw, day 21, groups 8-17
[3] = 5 mg/kg qw, day 21, groups 8-17

## CC[C@H](C)C(C(CC(=O)N1CCC[C@H]1[C@H](OC)[C@@H](C)C(=O)NC(C)[C@@H](O)c1ccccc1)OC)N(C)C(=O)[C@@H](NC(=O)C(C(C)C)N(C)C(=O)OCc1ccc(NC(=O)[C@H](CCCNC(N)=O)NC(=O)C(NC(=O)CCCC(=O)NCCC(=O)N(C)CC(=O)N(C)CC(=O)N(C)CC(=O)N(C)CC(=O)N(C)CC(=O)N(C)CC(=O)N(C)CC(=O)N(C)CC(=O)N(C)CC(=O)N(C)CC(=O)N[C@H]2CSCCC(=O)N3CN4CN(C3)C(=O)CCSC[C@H](NC(=O)[C@@H](CC(=O)O)NC(=O)[C@H](Cc3cccc5ccccc35)NC(=O)[C@@H]3CCCN3C2=O)C(=O)N[C@@H](CCSC)C(=O)N[C@@H](CCCCNC(=N)N)C(=O)N[C@@H](CC(=O)O)C(=O)N[C@@H](Cc2c[nH]c3ccccc23)C(=O)N[C@@H](CO)C(=O)N[C@@H]([C@@H](C)O)C(=O)N2CCC[C@H]2C(=O)N2C[C@H](O)C[C@H]2C(=O)N[C@@H](Cc2c[nH]c3ccccc23)C(=O)N[C@H](C(N)=O)CSCCC4=O)C(C)C)cc1)C(C)C (stereo partly drawn) [BCY8245, MMAE-PABC-Cit-Val-Glutaryl-BCY8234] (I: [Sar][Sar][Sar][Sar][Sar][Sar][Sar][Sar][Sar][Sar]CP[1Nal][dD]CM[hArg]DWSTP[Hyp]WC-NH2 / II: [ξV][Cit][PABC][ξNMeV]V[X1][Dolaproine]-X2; linker I:11-I:15-I:25 via TATA; linker I:N-II:N via X3)
Panc2.13 xenograft; 5 mpk, qw, day 0 after the start of treatment
  Tumor volume: 149 mm^3
Panc2.13 xenograft; 5 mpk, qw, day 2
  Tumor volume: 180 mm^3
Panc2.13 xenograft; 5 mpk, qw, day 4
  Tumor volume: 231 mm^3
Panc2.13 xenograft; 5 mpk, qw, day 7
  Tumor volume: 242 mm^3
Panc2.13 xenograft; 5 mpk, qw, day 9
  Tumor volume: 248 mm^3
Panc2.13 xenograft; 5 mpk, qw, day 11
  Tumor volume: 231 mm^3
Panc2.13 xenograft; 5 mpk, qw, day 14
  Tumor volume: 238 mm^3
  T/C: 43.6%
  TGI: 77.5%
  Tumor Volume (Mean ± SEM): 238 ± 40 mm^3
Panc2.13 xenograft; mouse, in vivo
  tumor response (in words): tumor growth is restrained by BCY8245 but the tumor does not undergo regression
HT-1376 xenograft; 1 mg/kg
  antitumor activity (in words): slight antitumor activity
HT-1376 xenograft; [1]
  TGI: 72.3%
  Tumor volume (TV): 407 mm^3
HT-1376 xenograft; [2]
  TGI: 50.9%
  Tumor volume (TV): 603 mm^3
HT-1376 xenograft; [3]
  TGI: 66.0%
  Tumor volume (TV): 465 mm^3
HT-1376 xenograft; 1/3 mpk, qw, iv (1 mg/kg first week, 3 mg/kg following 2 weeks), day 0 after start of treatment (Table 14)
  Tumor volume: 164 ± 16 mm^3
HT-1376 xenograft; 1/3 mpk, qw, iv (1 mg/kg first week, 3 mg/kg following 2 weeks), day 2 (Table 14)
  Tumor volume: 184 ± 12 mm^3
HT-1376 xenograft; 1/3 mpk, qw, iv (1 mg/kg first week, 3 mg/kg following 2 weeks), day 4 (Table 14)
  Tumor volume: 206 ± 14 mm^3
HT-1376 xenograft; 1/3 mpk, qw, iv (1 mg/kg first week, 3 mg/kg following 2 weeks), day 7 (Table 14)
  Tumor volume: 265 ± 21 mm^3
HT-1376 xenograft; 1/3 mpk, qw, iv (1 mg/kg first week, 3 mg/kg following 2 weeks), day 9 (Table 14)
  Tumor volume: 291 ± 10 mm^3
HT-1376 xenograft; 1/3 mpk, qw, iv (1 mg/kg first week, 3 mg/kg following 2 weeks), day 11 (Table 14)
  Tumor volume: 281 ± 28 mm^3
HT-1376 xenograft; 1/3 mpk, qw, iv (1 mg/kg first week, 3 mg/kg following 2 weeks), day 14 (Table 14)
  Tumor volume: 335 ± 16 mm^3
HT-1376 xenograft; 1/3 mpk, qw, iv (1 mg/kg first week, 3 mg/kg following 2 weeks), day 16 (Table 14)
  Tumor volume: 354 ± 11 mm^3
HT-1376 xenograft; 1/3 mpk, qw, iv (1 mg/kg first week, 3 mg/kg following 2 weeks), day 18 (Table 14)
  Tumor volume: 309 ± 19 mm^3
HT-1376 xenograft; 1/3 mpk, qw, iv (1 mg/kg first week, 3 mg/kg following 2 weeks), day 21 (Table 14)
  Tumor volume: 347 ± 14 mm^3
HT-1376 xenograft; 3 mpk, biw (Table 17)
  T/C: 38.1%
  TGI: 72.3%
HT-1376 xenograft; 3 mpk, biw, iv, day 0 after start of treatment (Table 15)
  Tumor volume: 154 ± 30 mm^3
HT-1376 xenograft; 3 mpk, biw, iv, day 2 (Table 15)
  Tumor volume: 248 ± 58 mm^3
HT-1376 xenograft; 3 mpk, biw, iv, day 5 (Table 15)
  Tumor volume: 203 ± 15 mm^3
HT-1376 xenograft; 3 mpk, biw, iv, day 7 (Table 15)
  Tumor volume: 273 ± 45 mm^3
HT-1376 xenograft; 3 mpk, biw, iv, day 9 (Table 15)
  Tumor volume: 356 ± 50 mm^3
HT-1376 xenograft; 3 mpk, biw, iv, day 12 (Table 15)
  Tumor volume: 391 ± 53 mm^3
HT-1376 xenograft; 3 mpk, biw, iv, day 14 (Table 15)
  Tumor volume: 407 ± 53 mm^3
HT-1376 xenograft; 3 mpk, biw, day 14 values of Table 15, Mean ± SEM (Table 17)
  Tumor volume: 407 ± 53 mm^3
HT-1376 xenograft; 3 mpk, qw (Table 17)
  T/C: 56.4%
  TGI: 50.9%
HT-1376 xenograft; 3 mpk, qw, iv, day 0 after start of treatment (Table 15, groups 8-17)
  Tumor volume: 153 ± 26 mm^3
HT-1376 xenograft; 3 mpk, qw, iv, day 2 (Table 15)
  Tumor volume: 254 ± 53 mm^3
HT-1376 xenograft; 3 mpk, qw, iv, day 5 (Table 15)
  Tumor volume: 298 ± 69 mm^3
HT-1376 xenograft; 3 mpk, qw, iv, day 7 (Table 15)
  Tumor volume: 398 ± 61 mm^3
HT-1376 xenograft; 3 mpk, qw, iv, day 9 (Table 15)
  Tumor volume: 468 ± 73 mm^3
HT-1376 xenograft; 3 mpk, qw, iv, day 12 (Table 15)
  Tumor volume: 502 ± 67 mm^3
HT-1376 xenograft; 3 mpk, qw, iv, day 14 (Table 15)
  Tumor volume: 603 ± 76 mm^3
HT-1376 xenograft; 3 mpk, qw, day 14 values of Table 15, Mean ± SEM (Table 17)
  Tumor volume: 603 ± 76 mm^3
HT-1376 xenograft; 3 mpk, qw, day 21 (Table 16)
  T/C: 39.2%
  TGI: 74.5%
HT-1376 xenograft; 3 mpk, qw, day 21, Mean ± SEM (Table 16)
  Tumor volume: 347 ± 14 mm^3
HT-1376 xenograft; 5 mpk, qw (Table 17)
  T/C: 43.5%
  TGI: 66.0%
HT-1376 xenograft; 5 mpk, qw, iv, day 0 after start of treatment (Table 15)
  Tumor volume: 153 ± 15 mm^3
HT-1376 xenograft; 5 mpk, qw, iv, day 2 (Table 15)
  Tumor volume: 237 ± 41 mm^3
HT-1376 xenograft; 5 mpk, qw, iv, day 5 (Table 15)
  Tumor volume: 228 ± 36 mm^3
HT-1376 xenograft; 5 mpk, qw, iv, day 7 (Table 15)
  Tumor volume: 317 ± 31 mm^3
HT-1376 xenograft; 5 mpk, qw, iv, day 9 (Table 15)
  Tumor volume: 394 ± 20 mm^3
HT-1376 xenograft; 5 mpk, qw, iv, day 12 (Table 15)
  Tumor volume: 438 ± 31 mm^3
HT-1376 xenograft; 5 mpk, qw, iv, day 14 (Table 15)
  Tumor volume: 465 ± 33 mm^3
HT-1376 xenograft; 5 mpk, qw, day 14 values of Table 15, Mean ± SEM (Table 17)
  Tumor volume: 465 ± 33 mm^3
HT-1376 xenograft; after increasing dosage to 3 mg/kg from day 7
  efficacy (in words): better efficacy
HT-1376 xenograft; mouse, in vivo
  anti-tumour activity (in words): good anti-tumour activity
